Reference: ChEMBL document CHEMBL4219041, “Improving oral bioavailability of cyclic peptides by N-methylation” (Bioorg Med Chem, 2018)
Square brackets hold non-standard residues; d marks the D form. Peptide text beside a SMILES is read from it. dNMeW = CN[C@H](Cc1c[nH]c2ccccc12)C(=O)O; NMeF = CN[C@@H](Cc1ccccc1)C(=O)O; NMeK = CN[C@@H](CCCCN)C(=O)O

How the values were obtained:
[1] = Efflux ratio of apparent permeability from basolateral to apical over apical to basolateral side in human Caco2 cells; assay type: ADME, cell-based; settings: Caco-2
[2] = Oral bioavailability in rat at 10 mg/kg; assay type: ADME, organism-based; settings: in vivo

Row | Compound | efflux ratio [1] | bioavailability [2]
1 | C[C@@H]1NC(=O)[C@H](C)NC(=O)[C@@H](C)N(C)C(=O)[C@H](C)N(C)C(=O)[C@H](C)NC(=O)[C@H](C)NC1=O | 2.05 | 
2 | C[C@@H](O)[C@@H]1NC(=O)[C@H](CCCCN)N(C)C(=O)[C@@H](Cc2c[nH]c3ccccc23)N(C)C(=O)[C@H](Cc2ccccc2)NC(=O)[C@@H]2CCCN2C(=O)[C@H](Cc2ccccc2)N(C)C1=O (cyclo(F[dNMeW][NMeK]T[NMeF]P)) |  | 10%

Second part, the compound after the results:

Row | efflux ratio [1] | bioavailability [2] | Compound
3 | 1.93 |  | C[C@@H]1NC(=O)[C@H](C)NC(=O)[C@@H](C)N(C)C(=O)[C@H](C)NC(=O)[C@H](C)N(C)C(=O)[C@H](C)NC1=O
4 | 1.97 |  | C[C@@H]1NC(=O)[C@H](C)N(C)C(=O)[C@H](C)N(C)C(=O)[C@H](C)NC(=O)[C@H](C)N(C)C(=O)[C@@H](C)N(C)C1=O
5 | 0.08 |  | C[C@@H]1NC(=O)[C@H](C)N(C)C(=O)[C@H](C)N(C)C(=O)[C@H](C)NC(=O)[C@@H](C)N(C)C(=O)[C@H](C)N(C)C1=O
